Assay results as given in ChEMBL document CHEMBL1127439, “Structure-activity relationship studies of central nervous system agents. 13. 4-[3-(Benzotriazol-1-yl)propyl]-1-(2-methoxyphenyl)piperazine, a new putative 5-HT1A receptor antagonist, and its analogs” (J Med Chem, 1994).

Key:
[1] = tested on: Mus musculus; assay: Effect on 8-OH-DPAT-induced hypothermia in mice (5 mg/kg) at intraperitoneal dosage of 8 mg/kg of compound after 30 mins; format: functional
[2] = tested on: Rattus norvegicus; assay: Tested for the effect on 8-OH-DPAT-induced behavior in reserpine pretreated rat against forepaw treading at dosage of 4 mg/kg; format: functional
[3] = tested on: Rattus norvegicus; assay: Tested for the effect on 8-OH-DPAT-induced behavior in reserpine pretreated rat against forepaw treading at dosage of 8 mg/kg; format: functional
[4] = tested on: Rattus norvegicus; assay: Tested for the effect on 8-OH-DPAT-induced behavior in reserpine pretreated rat against forepaw treading at dosage of 2 mg/kg; format: functional
[5] = tested on: Rattus norvegicus; assay: Tested for the effect on 8-OH-DPAT-induced behavior in reserpine pretreated rat against flat body posture at dosage of 4 mg/kg; format: functional
[6] = target: Serotonin 2 (5-HT2) receptor (Rattus norvegicus, UniProt P30994+P08909+P14842); assay: Tested in vitro for receptor binding affinity against 5-hydroxytryptamine 2 receptor using radioligand [3H]ketanserin; format: protein assay
[7] = tested on: Mus musculus; assay: Effect on 8-OH-DPAT-induced hypothermia in mice (5 mg/kg) at intraperitoneal dosage of 2 mg/kg of compound after 45 mins; format: functional
[8] = tested on: Mus musculus; assay: Effect on body temperature in mice at intraperitoneal dosage of 2 mg/kg, (compound administered 30 min before the test) after 75 min; format: functional
[9] = tested on: Rattus norvegicus; assay: Tested for the effect on 8-OH-DPAT-induced behavior in reserpine pretreated rat against flat body posture at dosage of 16 mg/kg; format: functional
[10] = tested on: Mus musculus; assay: Effect on 8-OH-DPAT-induced hypothermia in mice (5 mg/kg) at intraperitoneal dosage of 4 mg/kg of compound after 60 mins; format: functional
[11] = tested on: Mus musculus; assay: Effect on body temperature in mice at intraperitoneal dosage of 2 mg/kg, (compound administered 30 min before the test) after 45 min; format: functional
[12] = tested on: Mus musculus; assay: Effect on body temperature in mice at intraperitoneal dosage of 8 mg/kg, (compound administered 30 min before the test) after 30 min; format: functional
[13] = tested on: Rattus norvegicus; assay: Tested for the induction of lower lip retraction (LLR) by the investigated compounds in rat at dosage of 8 mg/kg; format: functional
[14] = tested on: Mus musculus; assay: Effect on body temperature in mice at intraperitoneal dosage of 4 mg/kg, (compound administered 30 min before the test) after 45 min; format: functional
[15] = tested on: Rattus norvegicus; assay: Tested for the effect on 8-OH-DPAT-induced behavior in reserpine pretreated rat against flat body posture at dosage of 2 mg/kg; format: functional
[16] = tested on: Rattus norvegicus; assay: Tested for the effect on 8-OH-DPAT-induced behavior in reserpine pretreated rat against forepaw treading at dosage of 1 mg/kg; format: functional
[17] = tested on: Mus musculus; assay: Effect on 8-OH-DPAT-induced hypothermia in mice (5 mg/kg) at intraperitoneal dosage of 8 mg/kg of compound after 60 mins; format: functional
[18] = tested on: Mus musculus; assay: Effect on body temperature in mice at intraperitoneal dosage of 4 mg/kg, (compound administered 30 min before the test) after 90 min; format: functional
[19] = tested on: Rattus norvegicus; assay: Tested for the induction of lower lip retraction (LLR) by the investigated compounds in rat at dosage of 4 mg/kg; format: functional
[20] = tested on: Rattus norvegicus; assay: Tested for the effect on 8-OH-DPAT-induced behavior in reserpine pretreated rat against flat body posture at dosage of 8 mg/kg; format: functional
[21] = tested on: Mus musculus; assay: Effect on body temperature in mice at intraperitoneal dosage of 8 mg/kg, (compound administered 30 min before the test) after 60 min; format: functional
[22] = tested on: Rattus norvegicus; assay: Tested for the effect on 8-OH-DPAT-induced lower lip retraction (LLR) in rat at dosage of 4 mg/kg; format: functional
[23] = tested on: Mus musculus; assay: Effect on 8-OH-DPAT-induced hypothermia in mice (5 mg/kg) at intraperitoneal dosage of 4 mg/kg of compound after 30 mins; format: functional
[24] = tested on: Mus musculus; assay: Effect on body temperature in mice at intraperitoneal dosage of 2 mg/kg, (compound administered 30 min before the test) after 30 min; format: functional
[25] = tested on: Rattus norvegicus; assay: Tested for the effect on 8-OH-DPAT-induced lower lip retraction (LLR) in rat at dosage of 16 mg/kg; format: functional
[26] = tested on: Mus musculus; assay: Effect on 8-OH-DPAT-induced hypothermia in mice (5 mg/kg) at intraperitoneal dosage of 2 mg/kg of compound after 60 mins; format: functional
[27] = tested on: Rattus norvegicus; assay: Tested for the effect on 8-OH-DPAT-induced lower lip retraction (LLR) in rat at dosage of 2 mg/kg; format: functional
[28] = tested on: Rattus norvegicus; assay: Tested for the induction of lower lip retraction (LLR) by the investigated compounds in rat at dosage of 16 mg/kg; format: functional
[29] = tested on: Mus musculus; assay: Effect on 8-OH-DPAT-induced hypothermia in mice (5 mg/kg) at intraperitoneal dosage of 4 mg/kg of compound after 45 mins; format: functional
[30] = tested on: Mus musculus; assay: Effect on 8-OH-DPAT-induced hypothermia in mice (5 mg/kg) at intraperitoneal dosage of 2 mg/kg of compound after 30 mins; format: functional
[31] = tested on: Mus musculus; assay: Effect on body temperature in mice at intraperitoneal dosage of 4 mg/kg, (compound administered 30 min before the test) after 60 min; format: functional
[32] = tested on: Rattus norvegicus; assay: Tested for the induction of lower lip retraction (LLR) by the investigated compounds in rat at dosage of 2 mg/kg; format: functional
[33] = tested on: Mus musculus; assay: Effect on 8-OH-DPAT-induced hypothermia in mice (5 mg/kg) at intraperitoneal dosage of 4 mg/kg of compound after 15 mins; format: functional
[34] = species on record: Rattus norvegicus; assay: Selectivity is the ratio between Ki values of 5-HT2 and 5-HT1A
[35] = tested on: Mus musculus; assay: Effect on body temperature in mice at intraperitoneal dosage of 4 mg/kg, (compound administered 30 min before the test) after 75 min; format: functional
[36] = tested on: Mus musculus; assay: Effect on body temperature in mice at intraperitoneal dosage of 2 mg/kg, (compound administered 30 min before the test) after 60 min; format: functional
[37] = tested on: Mus musculus; assay: Effect on body temperature in mice at intraperitoneal dosage of 8 mg/kg, (compound administered 30 min before the test) after 45 min; format: functional
[38] = tested on: Mus musculus; assay: Effect on 8-OH-DPAT-induced hypothermia in mice (5 mg/kg) at intraperitoneal dosage of 8 mg/kg of compound after 45 mins; format: functional
[39] = tested on: Rattus norvegicus; assay: Tested for the effect on 8-OH-DPAT-induced behavior in reserpine pretreated rat against flat body posture at dosage of 1 mg/kg; format: functional
[40] = tested on: Rattus norvegicus; assay: Tested for the effect on 8-OH-DPAT-induced lower lip retraction (LLR) in rat at dosage of 8 mg/kg; format: functional
[41] = tested on: Mus musculus; assay: Effect on body temperature in mice at intraperitoneal dosage of 4 mg/kg, (compound administered 30 min before the test) after 30 min; format: functional
[42] = tested on: Rattus norvegicus; assay: Tested for the effect on 8-OH-DPAT-induced behavior in reserpine pretreated rat against forepaw treading at dosage of 16 mg/kg; format: functional
[43] = tested on: Mus musculus; assay: Effect on 8-OH-DPAT-induced hypothermia in mice (5 mg/kg) at intraperitoneal dosage of 2 mg/kg of compound after 15 mins; format: functional
[44] = tested on: Mus musculus; assay: Effect on body temperature in mice at intraperitoneal dosage of 8 mg/kg, (compound administered 30 min before the test) after 90 min; format: functional
[45] = tested on: Mus musculus; assay: Effect on body temperature in mice at intraperitoneal dosage of 8 mg/kg, (compound administered 30 min before the test) after 75 min; format: functional
[46] = tested on: Mus musculus; assay: Effect on 8-OH-DPAT-induced hypothermia in mice (5 mg/kg) at intraperitoneal dosage of 8 mg/kg of compound after 15 mins; format: functional
[47] = target: T1, 5-hydroxytryptamine receptor 1A (Rattus norvegicus, UniProt P19327); assay: Tested in vitro for receptor binding affinity against 5-hydroxytryptamine 1A receptor using radioligand [3H]8-OH-DPAT
T1 sequence (P19327 whole entry): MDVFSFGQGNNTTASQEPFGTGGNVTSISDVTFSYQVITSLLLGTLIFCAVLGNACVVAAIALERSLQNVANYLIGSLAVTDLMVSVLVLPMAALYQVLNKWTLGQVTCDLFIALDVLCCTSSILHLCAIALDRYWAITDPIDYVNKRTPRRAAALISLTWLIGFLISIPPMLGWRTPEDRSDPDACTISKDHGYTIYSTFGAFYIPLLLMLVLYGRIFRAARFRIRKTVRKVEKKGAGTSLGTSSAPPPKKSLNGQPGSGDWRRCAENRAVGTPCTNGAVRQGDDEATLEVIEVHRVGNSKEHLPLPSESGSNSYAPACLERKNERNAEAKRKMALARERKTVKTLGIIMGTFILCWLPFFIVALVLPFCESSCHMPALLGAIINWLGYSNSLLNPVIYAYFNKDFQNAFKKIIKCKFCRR

[48] = tested on: Mus musculus; assay: Effect on body temperature in mice at intraperitoneal dosage of 2 mg/kg, (compound administered 30 min before the test) after 90 min; format: functional

## COc1ccccc1N1CCN(CCCCn2nc3ccccc3n2)CC1
[1]
  Delta t: 2.2 °C
[2]
  Behavioral score: 5.1
[3]
  Behavioral score: 2.4
[4]
  Behavioral score: 5.6
[5]
  Behavioral score: 11.7
[6]
  Ki: 214 nM
[7]
  Delta t: 1.2 °C
[8]
  Delta t: 0.3 °C
[9]
  Behavioral score: 2.6
[10]
  Delta t: 1.3 °C
[11]
  Delta t: 0 °C
[12]
  Delta t: 2.8 °C
[13]
  LLR score: 1.5
[14]
  Delta t: 0.8 °C
[15]
  Behavioral score: 9.3
[16]
  Behavioral score: 13.6
[17]
  Delta t: 1.1 °C
[18]
  Delta t: 0.8 °C
[19]
  LLR score: 1
[20]
  Behavioral score: 5.2
[21]
  Delta t: 2 °C
[22]
  LLR score: 2.3
[23]
  Delta t: 2.3 °C
[24]
  Delta t: 0.1 °C
[25]
  LLR score: 2.4
[26]
  Delta t: 0.9 °C
[27]
  LLR score: 2.5
[28]
  LLR score: 1.9
[29]
  Delta t: 1.8 °C
[30]
  Delta t: 1.9 °C
[31]
  Delta t: 0.9 °C
[32]
  LLR score: 0.3
[33]
  Delta t: 2.7 °C
[34]
  Selectivity: 54
[35]
  Delta t: 0.8 °C
[36]
  Delta t: 0.2 °C
[37]
  Delta t: 2.5 °C
[38]
  Delta t: 1.6 °C
[39]
  Behavioral score: 14.2
[40]
  LLR score: 2.4
[41]
  Delta t: 0.9 °C
[42]
  Behavioral score: 1.3
[43]
  Delta t: 2.1 °C
[44]
  Delta t: 1.4 °C
[45]
  Delta t: 2 °C
[46]
  Delta t: 2.4 °C
[47]
  Ki: 4 nM
[48]
  Delta t: 0.1 °C
